Assay results taken from patent US20250340543A1, “GPR84 ANTAGONISTS AND USES THEREOF” (Liminal BioSciences Limited, priority 2021, published 2025).
pIC50: −log10 of the molar value.

Target: GPR84 (Homo sapiens (Human), UniProt Q9NQS5)
Assay: Gai biosensor BRET assay (GPR84-mediated activation of Gai, antagonist mode against agonist ZQ-16)
Type: cell-based
Conditions: HEK293 cells, 200 nmol/L GPR84 agonist ZQ-16, read-out: hGPR84 IC50
From the text: Background—The following assays can be used for determination of GPR84 activation in living HEK293 cells. […] The Gai biosensor consists of a Rluc8-tagged Gαi2 subunit, a GFP10-tagged Gγ2 subunit, and an untagged Gβ1. […] Moreover, signaling functions of GPCRs are tightly regulated by endocytosis, the targeting of receptors to endosomes and their sorting to lysosomes or recycling to the plasma membrane. […] Agonist stimulation of GPR84—Rluc8 leads to trafficking of the receptor to EEs, and ensuing increase of the donor concentration relative to the rGFP-FYVE acceptor anchored in the same cellular compartment, and thus results in an increase in BRET signal.
Plasmids—The cDNA clones for human GPR84 receptor, human Gαi2, Gβ1, and Gγ2 were obtained from the cDNA Resource Center (www.cdna.org). GFP10 (F64L, S147P, S202F and H231L variant of Aequorea victoria Green Fluorescent Protein) gBlocks gene fragments (Integrated DNA Technologies, IA) and linker were inserted in frame at the N-terminus of human Gγ2. Rluc8 (A55T, C124A, S130A, K136R, A143M, M185V, M253L, and S287L variant of the Renilla renformis luciferase) gBlocks gene fragment was inserted with linkers in frame in between residues 91 and 92 of Gαi2 or at the C-terminus of GPR84. The FYVE domain from human endofin (residues Q739 to K806) attached in frame at the C terminus of a humanized Renilla GFP (rGFP), were synthesized as gBlocks gene fragments.
Bioluminescence Resonance Energy Transfer (BRET) Measurement—HEK293 cells were transfected with GPR84—Rluc8 and rGFP-FYVE for the EEs trafficking biosensor or with GPR84, Gαi2—Rluc8, GFP10-Gγ2, and Gβ1 for the Gai biosensor. The following day, transiently transfected cells were seeded in 96-well white clear bottom microplates coated with poly-D-lysine and left in culture for 24 hours. Cells were washed once with Tyrode's buffer (140 mmol/L NaCl, 1 mmol/L CaCl2, 2.7 mmol/L KCl, 0.49 mmol/L MgCl2, 0.37 mmol/L NaH2PO4, 5.6 mmol/L glucose, 12 mmol/L NaHCO3, and 25 mmol/L HEPES, pH 7.5) before performing assays in Tyrode's buffer. Test compounds were incubated with cells for 5 (Gai) or 15 (EEs) minutes at 37° C. before addition of 200 nmol/L of the GPR84 agonist ZQ-16 (2-(Hexylthio)-6-hydroxy-4(3H)-pyrimidinone) for 5 minutes at room temperature (Gai) or 30 minutes at 37° C. (EEs). The Rluc8 substrate coelenterazine 400A (Prolume, Lakeside, AZ) was added at a final concentration of […] and BRET readings were collected using an Infinite M1000 microplate reader (Tecan, Morrisville, NC). BRET^2 readings between Rluc8 and GFP10 or rGFP were collected by sequential integration of the signals detected in the 370 to 450 nm (Rluc8) and 510 to 540 nm (GFP10, rGFP) windows. The BRET signal was calculated as the ratio of light emitted by acceptor (GFP10, rGFP) over the light emitted by donor (Rluc8). The values were corrected to net BRET by subtracting the background BRET signal obtained in cells transfected with Rluc8 constructs alone. Ligand-promoted net BRET values were calculated by subtracting vehicle-induced net BRET from ligand-induced net BRET.

Sequence of GPR84 (Q9NQS5 whole entry): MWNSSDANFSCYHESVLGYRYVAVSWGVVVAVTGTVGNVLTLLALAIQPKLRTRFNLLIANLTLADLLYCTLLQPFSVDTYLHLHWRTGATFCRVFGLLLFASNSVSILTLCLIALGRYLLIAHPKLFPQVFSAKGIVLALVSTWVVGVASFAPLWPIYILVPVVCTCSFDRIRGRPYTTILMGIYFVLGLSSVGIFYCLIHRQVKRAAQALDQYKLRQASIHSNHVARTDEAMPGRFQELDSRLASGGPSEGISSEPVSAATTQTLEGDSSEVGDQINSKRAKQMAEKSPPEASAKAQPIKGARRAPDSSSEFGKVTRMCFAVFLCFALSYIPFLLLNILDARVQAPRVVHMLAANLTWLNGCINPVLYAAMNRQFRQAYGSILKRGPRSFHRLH

pIC50, < 4.90:
Cc1cc(OCc2ccccn2)ccc1-c1cc(OCC2COCCO2)cc(Cl)n1 (stereo not shown) [Compound I-58]

Same assay, conditions: compound tested at 2 μM (concentration code A)

Inhibition at 2 µM, 25 to 50%:
COc1cc(OCC2COc3ncccc3O2)cc(-c2ccc(-c3ccc(C)nc3)cc2C)n1 (stereo not shown) [Compound I-57]

Same assay, conditions: compound tested at 5 μM (concentration code C)

Inhibition at 5 µM, < 25%:
COc1cc(OCC2COc3cccnc3O2)cc(-c2ccc(-c3ccc(C)nc3)cc2C)n1 (stereo not shown) [Compound I-64]

Same assay, conditions: compound tested at 10 μM (concentration code D)

Inhibition at 10 µM, < 25%:
Cc1cc(OCC2COc3ccccc3O2)cc(=O)n1C(C)c1ccc(C#CC2CC2)cc1 (stereo not shown) [Compound I-65]
Cc1cc(OCC2COCCO2)cc(=O)n1C(C)c1ccc(C#CC(C)(C)C)cc1 (stereo not shown) [Compound I-68]
Cc1cc(OCC2COCCO2)cc(=O)n1C(C)c1ccc(C#CC2CC2)cn1 (stereo not shown) [Compound I-76]
Cc1cc(OCC2COCCO2)cc(=O)n1Cc1cccc(OCc2ccccc2)c1 (stereo not shown) [Compound I-82]
Cc1cc(OCC2COCCO2)cc(=O)n1C(C)c1cccc(C#CC2CC2)c1 (stereo not shown) [Compound I-88]
Cc1cc(OCC2COCCO2)cc(=O)n1Cc1cccc(C#CC(C)(C)C)c1 (stereo not shown) [Compound I-96]
Cc1cc(OCC2COCCO2)cc(=O)n1Cc1cccc(C#CCNCc2ccccc2)c1 (stereo not shown) [Compound I-97]
Cc1cc(OCC2COCCO2)cc(=O)n1C(C)c1ccc(OCC(F)(F)F)cc1 (stereo not shown) [Compound I-99]
Cc1cc(C#CC2CC2)ccc1C(C)n1c(C)cc(OCC2COCCO2)cc1=O (stereo not shown) [Compound I-100]
Cc1cc(C#CC2CC2)ccc1Cn1c(C)nc(OCC2COCCO2)cc1=O (stereo not shown) [Compound I-113]
Cc1cc(OCC2COCCO2)cc(=O)n1Cc1cccc(OCC(F)(F)F)c1 (stereo not shown) [Compound I-114]
Cc1ccc(C#CC2CC2)cc1Cn1c(C)cc(OCC2COCCO2)cc1=O (stereo not shown) [Compound I-115]
Cc1cc(OC[C@H]2COCCO2)cc(=O)n1Cc1ccc(N2CC(C)(C)C2)cc1 [Compound I-116]
Cc1cc(OCC2COCCO2)cc(=O)n1C(C)c1ccc(C#CCNc2ccccc2)cc1 (stereo not shown) [Compound I-117]
Cc1cc(OC[C@H]2COc3ncccc3O2)cc(=O)n1Cc1cccc(C#CC2CC2)c1 [Compound I-118]
O=c1cc(OCC2COCCO2)nc(-c2ccc(C#CC3CC3)cc2)[nH]1 (stereo not shown) [Compound I-119]
Cc1cc(OCc2ccccn2)ccc1-c1cc(OCC2COCCO2)[nH]c(=O)c1 (stereo not shown) [Compound I-120]
Cc1cc(OCc2ccccn2)ccc1-c1cc(OCC2COCCO2)n(C)c(=O)c1 (stereo not shown) [Compound I-121]
Cn1c(-c2ccc(C#CC3CC3)cc2)cc(=O)n(C[C@H]2COCCO2)c1=O [Compound I-122]
Cc1cc(OCC2COCCO2)cc(=O)n1Cc1ccc(C#CCNCc2ccccc2)cc1 (stereo not shown) [Compound I-123]

Inhibition at 10 µM, 25 to 50%:
Cc1cc(OCC(F)(F)F)ccc1-c1cncc(OCC2CCCCO2)c1 (stereo not shown) [Compound I-56]

Inhibition at 10 µM, > 75%:
Cc1cc(OCC2COc3ncccc3O2)cc(=O)n1C(C)c1ccc(C#CC2CC2)cc1 (stereo not shown) [Compound I-106]

Same assay, conditions: compound tested at 12.5 μM (concentration code E)

Inhibition at 12.5 µM, < 25%:
Cc1cc(OCC2COc3ccccc3O2)cc(=O)n1Cc1ccc(C#CC2CC2)cc1 (stereo not shown) [Compound I-73]
Clc1cc(OCC2COCCO2)cc(-c2ccc(OCc3ccccn3)cc2)n1 (stereo not shown) [Compound I-107]
Cc1ccc(-c2ccc(-c3cc(OCC4CCCCO4)ncn3)cc2)cn1 (stereo not shown) [Compound I-124]

Inhibition at 12.5 µM, 25 to 50%:
Cc1cc(OCc2ccccn2)ccc1-c1cc(OCC2COCCO2)cc(Cl)n1 (stereo not shown) [Compound I-58]

Same assay, conditions: compound tested at 15 μM (concentration code F)

Inhibition at 15 µM, < 25%:
COc1cc(OCC2COCCO2)cc(-c2cccc(-c3ccc(C)nc3)c2)n1 (stereo not shown) [Compound I-66]
Cc1cc(OCC2COCCO2)nc(OCc2ccc(C#CC3CC3)cc2)n1 (stereo not shown) [Compound I-85]

Same assay, conditions: compound tested at 25 μM (concentration code G)

Inhibition at 25 µM, 25 to 50%:
[O-][n+]1cc(OCC2COCCO2)cc(-c2ccc(OCC(F)(F)F)cc2)c1 (stereo not shown) [Compound I-59]

Inhibition at 25 µM, < 25%:
Cn1c(-c2ccc(OCC(F)(F)F)cc2)cc(OCC2COCCO2)nc1=O (stereo not shown) [Compound I-62]
Cc1cc(OCC2COCCO2)cc(=O)n1Cc1cccc(OCc2ccccn2)c1 (stereo not shown) [Compound I-63]
Cn1c(-c2ccc(C#CC3CC3)cc2)cc(OCC2COCCO2)cc1=O (stereo not shown) [Compound I-67]
COc1cc(OCC2COCCO2)cc(-c2cc(C#CC3CC3)ccc2C)n1 (stereo not shown) [Compound I-70]
Cc1cc(OCc2ccccn2)ccc1-c1cc(OCC2COCCO2)cc(=O)[nH]1 (stereo not shown) [Compound I-71]
CCc1cc(OCC2COCCO2)cc(OCc2ccc(C#CC3CC3)cc2)n1 (stereo not shown) [Compound I-72]
COc1cc(NC(=O)C2CCCCO2)cc(-c2ccc(C#CC3CC3)cc2)n1 (stereo not shown) [Compound I-75]
O=c1nc(OCC2COCCO2)ccn1Cc1cc(OCC(F)(F)F)ccc1Br (stereo not shown) [Compound I-77]
COc1c(C)cc(OCC2COCCO2)nc1-c1ccc(OCC(F)(F)F)cc1 (stereo not shown) [Compound I-78]
COc1cc(OCC2COCCO2)cc(-c2cc(C#CCNc3ccccc3)ccc2C)n1 (stereo not shown) [Compound I-79]
COc1ccc(CN2CCN(c3cc(OCC4COCCO4)nc(=O)n3C)CC2)cc1 (stereo not shown) [Compound I-81]
COc1cc(NC(=O)C2CCCCO2)cc(-c2cccc(C#CC3CC3)c2)n1 (stereo not shown) [Compound I-84]
Cc1ccc(N2CCN(c3cc(OCC4COCCO4)nc(=O)n3C)CC2)cn1 (stereo not shown) [Compound I-86]
COc1cc(OCC2COCCO2)cc(-c2ccc(C#CC3CC3)cc2C)n1 (stereo not shown) [Compound I-90]
Cc1ccc(-c2ccc(Cn3c(C)cc(OCC4COCCO4)cc3=O)cc2)cn1 (stereo not shown) [Compound I-91]
Cc1nc(OCc2ccc(C#CC3CC3)cc2)cc(OCC2COCCO2)n1 (stereo not shown) [Compound I-92]
Cc1ccc(-c2ccc(-c3cc(OCC4COCCO4)cc(Cl)n3)c(C)c2)cn1 (stereo not shown) [Compound I-93]
COc1cc(OCC2COCCO2)nc(-c2ccc(OCC(F)(F)F)cc2)c1OC (stereo not shown) [Compound I-94]
COc1cc(OCC2COCCO2)cc(-c2cc(-c3ccc(C)nc3)ccc2C)n1 (stereo not shown) [Compound I-95]
COc1cc(NC(=O)C2COCCO2)cc(-c2ccc(C#CC3CC3)cc2)n1 (stereo not shown) [Compound I-98]
Cc1cc(C#CC2CC2)ccc1Cn1c(C)cc(OCC2COCCO2)cc1=O (stereo not shown) [Compound I-101]
O=c1nc(OCC2COCCO2)cc(-c2ccc(OCC(F)(F)F)cn2)[nH]1 (stereo not shown) [Compound I-102]
COc1nc(OCC2COCCO2)cc(-c2ccc(C#CC3CC3)cc2C)n1 (stereo not shown) [Compound I-103]
Cc1ccc(-c2ccc(-c3cc(OCC4COCCO4)cc(Cl)n3)cc2)cn1 (stereo not shown) [Compound I-105]
Cc1cc(C#CC2CC2)ccc1-c1cc(OCC2COCCO2)cc(Cl)n1 (stereo not shown) [Compound I-108]
Clc1cc(OCC2COCCO2)cc(-c2ccc(C#CCNc3ccccc3)cc2)n1 (stereo not shown) [Compound I-109]
COc1nc(OCC2COCCO2)cc(-c2ccc(OCC(F)(F)F)cc2)n1 (stereo not shown) [Compound I-110]
FC(F)(F)COc1cccc(-c2cccc(OCC3COCCO3)n2)c1 (stereo not shown) [Compound I-111]
COc1cc(OCC2COCCO2)nc(-c2ccc(OCC(F)(F)F)cc2C)c1C (stereo not shown) [Compound I-112]
